Key:
Assay type in all cases: cell-based
HeLa (HPV18+) cells = experiment: Cell proliferation/viability assay, HeLa cells; details: Homo sapiens, 96 h, 4 days
Procedure: (§1) Caski (catalog number CRL-1550), SiHa (catalog number HTB-35), C33A (catalog number HTB-31), Saos-2 (ATCC HTB-85), and Hela (catalog number CCL-2) cells were obtained from the American Type Culture Collection (ATCC). The human cervical carcinoma cell lines Caski. SiHa, Hela and C33A, and the human osteosarcoma cell line Saos-2, and the human keratinocyte cell line HaCaT were cultured in Dulbecco's Modified Eagle Medium (DMEM, Invitrogen catalog number 11965-092) supplemented with 10% fetal bovine serum. The colorectal carcinoma cell line HCT-116 was cultured in Roswell Park Memorial Institute-1640 Medium (Invitrogen catalog number 11875-093) supplemented with 10% FBS. All cells were incubated at 37° C. in a humidified atmosphere with 5% CO2 in air. To establish the SCHPV-18 cell line, one million primary neonatal human foreskin keratinocytes (Invitrogen, catalog no. C-001-5C), cultured in KBM Gold-keratinocvte cell basal medium (Lonza, catalog no. 192060), were electroporated with 5 μg HPV-18 plasmid DNA (ATCC catalog no. 45152D) using the Amaxa Nucleofector II on setting T-007. Cells were co-transfected with 2 μg plasmid pZSGreen1-N1 (Clontech catalog no. 632448) encoding G418 resistance, and cells were selected for four days in 100 μg/ml G418, after which selection was removed. Cells were maintained in culture six months prior to compound testing. Integration of the HPV 18 genome was confirmed by Southern blot. Control cells transfected in parallel with pZSGreen1-N1 alone became senescent four days after selection and the culture could not be expanded. SCHPV-18 cells were maintained in E medium (Fehrmann F, Laimins L A. Human papillomavirus type 31 life cycle: methods for study using tissue culture models. Methods Mol Biol 2005; 292:317-330).
(§2) For proliferation assays, cells were plated in white polystyrene 96-well plates (Costar catalog number 3917) for CellTiter Glo viability assays or 96-well special optics plates (Costar cat #3614) for CellTiter Blue viability assays. Cells were plated in the appropriate growth medium without antibiotics. Two hours after cell plating, a 200× compound stock diluted in DMSO was added to a final concentration of 0.5%. Plates were incubated at 37° C., for 4 days and then cell viability was assessed using either CellTiter Blue (Promega catalog number G8081) or CellTiter Glo (Promega catalog number G7572) according to the manufacturer's instructions. For the CellTiter Blue viability assay, data was collected using the SpectraMax Gemini EM (Molecular Devices) with an excitation wavelength of 530 nm and emission wavelength of 590 nm. For the CellTiter Glo viability assay, data was collected using the Envision Mulitlabel Reader (Perkin Elmer catalog number 2104-0010). To calculate IC50 and EC50 values, percent inhibition curves were fit using a four-parameter logistic formula [y=A+[…]], where A and B denote minimal and maximal % inhibition, respectively, C is the IC50 value, D is the Hill slope, and x represents compound concentration.
(§3) Table C, below, sets out the results obtained employing various compounds of the invention tested for their effects on proliferation of such cells. Caski or SiHa cells, transformed by HPV 16, Hela cells, transformed by HPV 18, or HPV-negative control cell lines (Saos-2 or C33a) were treated with various compounds. […] Unlike the HPV-negative Saos-2 or C33a cell lines, the HPV-transformed cell lines rely on the presence of HPV for their continued proliferation. Therefore, a comparison of IC50 values from HPV-transformed cell lines with IC50 values obtained from HPV-negative cell lines can be used to test for compound selectivity.

[1] = system: platelet aggregation induced by gamma-thrombin; experiment: Gamma thrombin induced platelet aggregation assay in platelet rich plasma (PRP); details: human platelet rich plasma
Source text: The compounds of the current invention can be tested in vitro for their ability to inhibit platelet aggregation induced by gamma-thrombin as shown in Example C. Gamma-thrombin, a proteolytic product of alpha-thrombin which no longer interacts with PAR1, selectively cleaves and activates PAR4 (Soslau, G. et al., “Unique pathway of thrombin-induced platelet aggregation mediated by glycoprotein Ib”, J. Biol. Chem., 276:21173-21183 (2001)). Platelet aggregation can be monitored in a 96-well microplate aggregation assay format or using standard platelet aggregometer. […]
The ability of the compounds of the current invention to inhibit platelet aggregation induced by gamma-thrombin was tested in a 96-well microplate aggregation assay format. […] The plate was then placed into a SpcctraMax® Plus Plate Reader (Molecular Devices) at 37° C. Platelet aggregation was monitored at a wavelength of 405 nm using a kinetic analysis mode. […] Inhibition of platelet aggregation (IPA) was calculated based on the formula: % IPA=(100−100*[ODcompound−ODminimum]/[ODmaximum−ODminimum]). The IC50 value of the test compound was calculated by fitting the % IPA values to the one-site concentration response equation: Y=A+(B−A)/{1+(C/X)^D]}, using XLfit for 32 bit Excel® Version 2 Build 30 (ID Business Solutions Limited).

C33A (HPV−) cells = experiment: Cell proliferation/viability assay, C33A cells; details: Homo sapiens, C-33-A, 96 h, read-out: C33A (HPV−) Proliferation IC50 (μM)
Procedure: as §1, §2, §3

Saos-2 (HPV−) cells = experiment: Cell proliferation/viability assay, Saos-2 cells; details: Homo sapiens, SAOS-2, 96 h, read-out: Saos-2 (HPV−) Proliferation IC50 (μM)
Procedure: as §1, §2, §3

SiHa (HPV16+) cells = experiment: Cell proliferation/viability assay, SiHa cells; details: Homo sapiens, 96 h, 4 days
Procedure: as §1, §2, §3

SMILES: COc1ccc(-c2cc(C)cc3nc(OC(F)F)cnc23)cc1 [Example 6, 2-(difluoromethoxy)-5-(4-methoxyphenyl)-7-methylquinoxaline]
- IC50 (HeLa (HPV18+) cells): 10.6 µM
- IC50 [1]: > 30 µM
- IC50 (C33A (HPV−) cells): 44.8 µM
- IC50 (Saos-2 (HPV−) cells): 48 µM
- IC50 (SiHa (HPV16+) cells): 10.1 µM
